The text below walks through data of publication PMC3161871, “Heteroarylketones inhibit astroglial interleukin-6 expression via a STAT3/NF-κB signaling pathway” (Journal of Neuroinflammation, 2011).

Bounds are passed on as bounds.

The target in experiment [1] is T1, human recombinant prolyl endopeptidase (PREP) (Homo sapiens, UniProt P48147).
T1 construct: made in house
T1 sequence (P48147 1-710): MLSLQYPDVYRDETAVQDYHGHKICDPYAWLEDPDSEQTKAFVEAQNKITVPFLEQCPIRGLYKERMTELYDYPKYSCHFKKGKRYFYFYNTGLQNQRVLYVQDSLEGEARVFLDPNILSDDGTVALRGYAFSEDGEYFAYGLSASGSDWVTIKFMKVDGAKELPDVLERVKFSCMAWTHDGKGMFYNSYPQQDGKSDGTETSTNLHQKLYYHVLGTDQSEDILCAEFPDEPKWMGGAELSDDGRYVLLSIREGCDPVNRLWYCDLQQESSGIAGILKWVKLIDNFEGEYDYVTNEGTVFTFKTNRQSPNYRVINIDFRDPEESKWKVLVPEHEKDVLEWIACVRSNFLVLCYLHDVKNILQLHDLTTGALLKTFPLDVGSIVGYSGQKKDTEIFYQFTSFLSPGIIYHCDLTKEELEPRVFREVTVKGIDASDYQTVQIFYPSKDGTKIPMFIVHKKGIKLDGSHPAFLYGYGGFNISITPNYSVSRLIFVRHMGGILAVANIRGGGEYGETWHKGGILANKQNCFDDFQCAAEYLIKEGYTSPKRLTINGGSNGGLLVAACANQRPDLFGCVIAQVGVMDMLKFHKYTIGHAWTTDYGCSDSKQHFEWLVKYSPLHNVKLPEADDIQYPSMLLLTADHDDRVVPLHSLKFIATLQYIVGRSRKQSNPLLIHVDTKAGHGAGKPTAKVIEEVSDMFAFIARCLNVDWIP
Kind of experiment: PREP enzymatic activity assay (Z-Gly-Pro-pNA, photometric). The settings on record: for Ki: recombinant PREP, Z-Gly-Pro-pNA 62.5/125/250 μM, pH 7.6, 30°C, competitive fit. In kind it is biochemical. How it is done:
The activity of human recombinant prolyl endopeptidase (PREP) was determined photometrically using the substrate Z-Gly-Pro-pNA (Bachem, Weil am Rhein, Germany) usually at a concentration of 150 μM. As assay buffer 50 mM HEPES buffer pH 7.6, containing 200 mM NaCl, 1 mM EDTA, and 1 mM dithiothreitol was used. Release of pNA was monitored continuously at 405 nm for 15 min at 30°C in a 96-well plate reader (Spectrafluor, Tecan, Crailsheim, Germany). PREP activity was calculated from the slope of the time product curve with the help of a pNA standard. For determination of Ki values three different substrate concentrations (62.5 μM; 125 μM and 250 μM) and seven different inhibitor concentrations were analyzed. Substrate concentrations were selected to be at the Km value of Z-Gly-Pro-pNA (125 μM) as well as half and twice the Km. Data were fitted by non-linear regression to the competitive inhibitor equation (Graphit 5.0, Erithacus software).

The subject of experiment [2] is OSM-stimulated IL-6 secretion from U343 cells. Nature of the experiment: OSM-induced IL-6 release from U343 glioma cells (IL-6 ELISA of conditioned medium). In kind it is cell-based, human. As to conditions: for Remaining IL-6 expression [% of control]: 100 ng/ml OSM, 24 h, IL-6 release of vehicle-treated cells set to 100% (n = 2), mean ± SD; for Effect on OSM-induced IL-6 secretion (in words): OSM-stimulated. The method, then: The human glioma cell line U343 [34] was maintained in DMEM containing 10% fetal bovine serum and 60 μg/ml gentamycin (Invitrogen, Darmstadt, Germany) at 37°C in a 10% CO2 atmosphere.
(§1) Measurements of IL-6 in conditioned medium and murine plasma samples were done by means of human- or murine-specific IL-6 Cytoset kits (Invitrogen, Darmstadt, Germany) according to manufacturer's protocols.
Using the characterized cell culture model of OSM-induced IL-6 expression, our in-house compound libraries were screened for potent IL-6 expression inhibitors. Human U343 glioma cells were treated with 100 ng/ml OSM for 24 h. The analysis by IL-6 ELISA identified a set of structurally related compounds as potent inhibitors of IL-6 secretion (Table 1). […] HAKs with proline in position P1 are known from the literature as inhibitors of prolyl endopeptidase (PREP), a proline-specific serine protease.

In experiment [3] the test system is LPS-induced IL-6 release in primary mouse astrocytes. Nature of the experiment: LPS-induced IL-6 release in primary mouse astrocytes (ELISA). The settings on record: 1 μg/ml LPS, 20 μM compound, 24 h. In kind it is cell-based. How it is done:
(§2) According to Löffler, astrocyte-rich primary cell cultures were started with brains of newborn mice and rats and were maintained in Dulbecco's modified Eagle's medium (DMEM) for 33 days at 37°C in a humified atmosphere with 95% air/5% CO2.
as §1
(§3) Figure 5 Suppression of LPS-induced IL-6 release in primary murine astrocytes by selected HAK compounds. […] Astrocytes derived from newborn mice and rats were cultivated for 33 days followed by stimulation with 1 μg/ml LPS and treatment with compounds HAK-2 and HAK-5 (20 μM). After 24 hours conditioned media were analyzed with IL-6 specific ELISA. Data (mean ± SD) were obtained from experiments carried out in quadruplicate and statistical analysis was performed using the paired t test. Amount of IL-6 in LPS-treated control sample was set to 100%. ns, not significant; **p < 0.01; ***p < 0.001.
(§4) Primary murine astrocytes stimulated with 1 μg/ml LPS were co-treated with compounds HAK-2 and HAK-5 at a concentration of 20 μM each for 24 h. The observed effect of compounds HAK-2 and HAK-5 on LPS stimulation was similar to that of OSM-induced IL-6 expression in human U343 glioma cells (Figures 5A and 5B). […]
In general terms: In an ELISA, binding on a coated surface is turned into a signal by an enzyme label.

Experiment [4] concerns LPS-induced IL-6 release in primary rat astrocytes. Nature of the experiment: LPS-induced IL-6 release in primary rat astrocytes (ELISA). The settings on record: 1 μg/ml LPS, 20 μM compound, 24 h. Format: cell-based. The method, then: as §2, §1, §3, §4
Experiment [5] concerns STAT3 phosphorylation at serine 727 (pSTAT3^S727) in U343 cells. Kind of experiment: OSM-induced STAT3 / Erk1 phosphorylation in U343 cells (western blot, immunocytochemistry). In kind it is cell-based, human. As to conditions: OSM 100 ng/ml, 20 μM compound, 6 h. The method, then: Human U343 cells were lysed with cell lysis buffer (Invitrogen, Darmstadt, Germany) supplemented with 0.2 mg/ml sodium orthovanadate (Sigma, Taufkirchen, Germany), protease inhibitor mix complete mini (Roche, Mannheim, Germany) and 1 mM AEBSF (Sigma, Taufkirchen, Germany) for 30 min on ice. Lysates were centrifuged for 15 min at 15,000 × g and 4°C. Protein content in supernatants was quantified by Bradford assay (Sigma, Taufkirchen, Germany) according to the manufacturer's protocol and stored at -20°C.
Western blotting was performed with 30 μg protein of whole-cell extracts, mixed with 4 x SDS sample loading buffer (Invitrogen, Darmstadt, Germany) and denatured for 10 min at 85°C. […]
Human U343 cells (1 × 10^5 cells/well) were grown on cover slips in 24-well plates (Greiner, Frickenhausen, Germany) for 24 h. […] Finally, cover slips were mounted on microscope slides and approximately 250 cells/sample were evaluated densitometrically by fluorescence microscopy (Zeiss, Jena, Germany) and MetaMorph Image Analysis Software (Universal Imaging Corporation, USA). […]
Figure 7 Effect of selected HAK compounds on OSM-induced STAT3 phosphorylation at serine 727 in U343 cells. […] For western blot analysis (A) 0.25 × 10^6 cells co-treated for 6 h with OSM (100 ng/ml) and selected HAK compounds (20 μM) were extracted and analyzed as described in experimental procedures. […]

In experiment [6] the test system is OSM-induced IL-6 mRNA expression. On the set-up: method as in PMID 10899931. The settings on record: cited from earlier work.

A word on the Ki: it is a dissociation constant, usually derived from enzyme kinetics or from competition with a known ligand.

Regarding `O=C(N[C@@H](Cc1ccccc1)C(=O)N1CCC[C@H]1C(=O)c1nc2ccccc2s1)OCc1ccccc1` [HAK-1, Z-Phe-Pro-BTh], in experiment [1], the Ki amounted to 4.6 nM. Moreover, in experiment [2], the “Remaining IL-6 expression [% of control]” value is listed as 15.9 ± 1.87 % of control and the “Effect on OSM-induced IL-6 secretion (in words)” value (“Effect … (in words)” for short) is recorded as “significantly reduced”.

Consider `CC(C)C[C@H](NC(=O)[C@H](Cc1ccccc1)NC(=O)OCc1ccccc1)C(=O)c1nc2ccccc2s1` [HAK-3, Z-Phe-Leu-BTh], for which, in experiment [1], the “PREP inhibition (in words)” value was “poor PREP inhibitors” and the Ki was above 1000 nM. For the same compound, in experiment [2], the “Remaining IL-6 expression [% of control]” value was 22.1 ±5.91 % of control and the “Effect … (in words)” value is “significantly reduced”.

As for `C[C@H](NC(=O)[C@H](Cc1ccccc1)NC(=O)OCc1ccccc1)C(=O)c1nc2ccccc2s1` [HAK-4, Z-Phe-Ala-BTh], in experiment [1], the “PREP inhibition (in words)” value is listed as “poor PREP inhibitors” and the Ki is above 10000 nM. Also, in experiment [2], the “Remaining IL-6 expression [% of control]” value is 35.1 ± 6.75 % of control and the “Effect … (in words)” value was “significantly reduced”.

In the case of `O=C(N[C@@H](Cc1ccccc1)C(=O)N1CCC[C@H]1C(=O)c1nccs1)OCc1ccccc1` [HAK-5, Z-Phe-Pro-Th], in experiment [1], the Ki came out at 0.11 nM. Besides, the “Reduction of LPS-induced IL-6 expression” value in experiment [3] was found to be 60%. In experiment [2], the “Remaining IL-6 expression [% of control]” value is reported as 35.2 ± 12.92 % of control and the “Effect … (in words)” value is on record as “significantly reduced”. The “Reduction of LPS-induced IL-6 expression” value in experiment [4] worked out at 50%.

On to `NCCCC[C@H](NC(=O)OCc1ccccc1)C(=O)N1CCC[C@H]1C(=O)c1nc2ccccc2s1` [HAK-6, Z-Lys-Pro-BTh], for which the Ki in experiment [1] is 4.1 nM. In addition, in experiment [2], the “Remaining IL-6 expression [% of control]” value is reported as 38.8 ± 5.26 % of control and the “Effect … (in words)” value was “significantly reduced”.

For `O=C(O)C[C@H](NC(=O)OCc1ccccc1)C(=O)N1CCC[C@H]1C(=O)c1nc2ccccc2s1` [HAK-7, Z-Asp-Pro-BTh], the Ki in experiment [1] was 12 nM. In addition, in experiment [2], the “Remaining IL-6 expression [% of control]” value is reported as 52.8 ± 3.91 % of control and the “Effect … (in words)” value is given as “significantly reduced”.

Consider `N=C(N)NCCC[C@H](NC(=O)OCc1ccccc1)C(=O)N1CCC[C@H]1C(=O)c1nc2ccccc2s1` [HAK-8, Z-Arg-Pro-BTh], for which, in experiment [1], the “PREP inhibition (in words)” value was “potent PREP inhibitor” and the Ki stood at 3.2 nM. Further, in experiment [5], the “Effect on pSTAT3^S727 phosphorylation (western blot)” value is reported as “significantly lower effect” and the “Suppression of OSM-mediated phosphorylation of pSTAT3^S727 (immunocytochemistry, densitometry)” value is on record as “did not”. In experiment [2], the “Remaining IL-6 expression [% of control]” value is recorded as 96.8 ± 10.69 % of control and the “Effect … (in words)” value was “does not reduce”.

As to `O=C(NC(Cc1ccccc1)C(=O)NC(Cc1ccccc1)C(=O)c1nc2ccccc2s1)OCc1ccccc1` (stereo not drawn) [HAK-9, Z-Phe-Phe-BTh], in experiment [1], the Ki is above 10000 nM. In experiment [2], the “Remaining IL-6 expression [% of control]” value is recorded as 182.8 ± 25.41 % of control.

On to `COc1ccc(C[C@H](N)C(=O)N[C@H]2[C@@H](O)[C@H](n3cnc4c(N(C)C)ncnc43)O[C@@H]2CO)cc1` [puromycin], for which, in experiment [6], the “Effect on first OSM-induced IL-6 mRNA peak” value is “no effect” and the “Effect on second OSM-induced IL-6 expression peak” value is “completely abrogated”.
